One experiment concerns CD4+ T-cells. In words: Immunostimulation assay with anti-CD3/28 stimulated T-cells, CD69 expression by flow cytometry. It is filed as cell-based, human. The following applies: T-cell; purified human CD4+ and CD8+ T-cells, 1 µg/ml anti-CD3, 1 µg/ml anti-CD28, 16 hours, surface FACS; read-out: EC50 CD4+. Here is the method: (§1) Selection of potent compounds based on structure activity relation (SAR) using human, anti-CD3/28 stimulated T-cells. Enhanced activation of stimulated T-cells is measured by CD69 expression by flowcytometry.
(§2) White blood cell enriched buffy coats were ordered from the Austrian red cross, diluted with PBS to a total volume of 480 ml, 30 ml transferred to 50ml falcons and 11 ml lymphoprep added. Cell suspensions were centrifuged for 20 min at 2200 rpm and the PBMC containing layer transferred, three times washed with PBS and counted.
(§3) 10^7 PBMCs were magnetically labeled with CD4 and CD8 microbeads according to manufacturer's instructions and separated using autoMACS device. For dose response experiments with purified CD4+CD8+ T-cells 80000 cells were seeded per 96-well flat bottom cell culture dish.
(§4) 10 mM compounds of the invention stocks were further diluted using DMSO and equal amounts transferred to T-cell containing 96-wells. Final concentrations tested were: 30 µM, 10 µM, 3 µM, 1 µM, 0.3 µM, 0.1 µM, 0.03 µM, 0.01 µM, 0.003 µM and 0.001 µM.
(§5) For the stimulation assays 80.000 purified CD4+ and CD8+ T-cells were seeded per 96-well and incubated with 1 µg/ml anti-CD3, 1 µg/ml anti-CD28 and compounds of the invention ranging from 0.001 µM to 30 µM. DMSO only wells served as control to determine minimal T-cell activation upon stimulation and CD3/28 coupled Dynabeads were used to determine the maximal activation of T-cells. Cells were cultured for 16 hours in a humidified incubator at 37 °C and 5 % CO2.
(§6) T-cells were stained for surface antigens (anti-CD4 and anti-CD8) and cell activation markers (anti-CD25 and anti-CD69). Additionally, a fixable viability dye was used to stain viable cells. Staining was performed for 15 minutes and cells analyzed using a Fortessa flow cytometer and FlowJo Software. EC50s were calculated using GraphPad Prism® and a variable slope model (agonist vs. response - variable slope).
For orientation: Flow cytometry measures light scatter and fluorescence of single cells or particles in a stream.

Another experiment concerns CD8+ T-cells. Described as above. The following applies: T-cell; purified human CD4+ and CD8+ T-cells, 1 µg/ml anti-CD3, 1 µg/ml anti-CD28, 16 hours, surface FACS; read-out: EC50 CD8+. Type of experiment: cell-based, human. On the procedure: as §1, §2, §3, §4, §5, §6

The values below come from patent EP4389749A1, “SUBSTITUTED 3,7-DIHYDRO-1H-PURINE-2,6-DIONES AND USE THEREOF” (invIOs GmbH, priority 2022, dated 2024).

In general, EC50 refers to the concentration needed to bring the measured effect to its halfway point.

The structures appear in SMILES notation.

For `Cc1ccc(COc2ccc(-c3nc4c(c(=O)[nH]c(=O)n4CC(C)O)n3C)cc2OC(F)F)cc1` (stereo not drawn) [Compound 76, 8-(3-(difluoromethoxy)-4-((4-methylbenzyl)oxy)phenyl)-3-(2-hydroxypropyl)-7-methyl-3,7-dihydro-1H-purine-2,6-dione], the EC50 in the experiment with CD4+ T-cells and in the experiment with CD8+ T-cells was < 0.1 µM each time.
In the case of `Cc1ccc(COc2ccc(-c3nc4c(c(=O)[nH]c(=O)n4CC(C)O)n3C)cc2)cc1` (stereo not drawn) [Compound 77, 3-(2-hydroxypropyl)-7-methyl-8-(4-((4-methylbenzyl)oxy)phenyl)-3,7-dihydro-1H-purine-2,6-dione], the half-maximal effective concentration (EC50) in the experiment on CD4+ T-cells lay within 0.5 to 1 µM; in the experiment on CD8+ T-cells, 0.1 to 0.5 µM.
`CC(O)Cn1c(=O)[nH]c(=O)c2c1nc(-c1ccc(OCc3ccccc3)cc1)n2C` (stereo not drawn) [Compound 78, 8-(4-(benzyloxy)phenyl)-3-(2-hydroxypropyl)-7-methyl-3,7-dihydro-1H-purine-2,6-dione]: the results for the EC50 with CD4+ T-cells and with CD8+ T-cells were 0.5 to 1 µM and 0.1 to 0.5 µM, respectively.
With `COc1cc(-c2nc3c(c(=O)[nH]c(=O)n3CC(O)C(F)F)n2C)ccc1OCc1ccc(C(F)F)cc1` (stereo not drawn) [Compound 79, 3-(3,3-difluoro-2-hydroxypropyl)-8-(4-((4-(difluoromethyl)benzyl)oxy)-3-methoxyphenyl)-7-methyl-3,7-dihydro-1H-purine-2,6-dione], the EC50 in the experiment with CD4+ T-cells and in the experiment with CD8+ T-cells was 0.1 to 0.5 µM throughout.
As for `Cc1ccc(COc2ccc(-c3nc4c(c(=O)[nH]c(=O)n4CC(O)C(F)F)n3C)cc2F)cc1` (stereo not drawn) [Compound 80, 3-(3,3-difluoro-2-hydroxypropyl)-8-(3-fluoro-4-((4-methylbenzyl)oxy)phenyl)-7-methyl-3,7-dihydro-1H-purine-2,6-dione], the EC50 in the experiment with CD4+ T-cells and in the experiment with CD8+ T-cells was < 0.1 µM in each case.
Take `CC(O)Cn1c(=O)[nH]c(=O)c2c1nc(-c1ccc(Oc3ccc(Cl)cc3)c(OC(F)F)c1)n2C` (stereo not drawn) [Compound 81, 8-(4-(4-chlorophenoxy)-3-(difluoromethoxy)phenyl)-3-(2-hydroxypropyl)-7-methyl-3,7-dihydro-1H-purine-2,6-dione]: the EC50 was 0.1 to 0.5 µM in the experiment on CD4+ T-cells and < 0.1 µM in the experiment with CD8+ T-cells.
With `COc1cc(-c2nc3c(c(=O)[nH]c(=O)n3CC(C)O)n2C)ccc1OCc1ccc(OC(F)(F)F)cc1` (stereo not drawn) [Compound 82, 3-(2-hydroxypropyl)-8-(3-methoxy-4-((4-(trifluoromethoxy)benzyl)oxy)phenyl)-7-methyl-3,7-dihydro-1H-purine-2,6-dione], the EC50 in the experiment on CD4+ T-cells and in the experiment with CD8+ T-cells was 0.1 to 0.5 µM throughout.
`COc1cc(-c2nc3c(c(=O)[nH]c(=O)n3CC(O)C(F)F)n2C)ccc1OCc1ccc(OC(F)F)cc1` (stereo not drawn) [Compound 83, 3-(3,3-difluoro-2-hydroxypropyl)-8-(4-((4-(difluoromethoxy)benzyl)oxy)-3-methoxyphenyl)-7-methyl-3,7-dihydro-1H-purine-2,6-dione]: the EC50 with CD4+ T-cells and in the experiment with CD8+ T-cells was < 0.1 µM throughout.
For the compound `COc1cc(-c2nc3c(c(=O)[nH]c(=O)n3CC(O)C(F)F)n2C)ccc1OCc1ccc(F)cc1` (stereo not drawn) [Compound 84, 3-(3,3-difluoro-2-hydroxypropyl)-8-(4-((4-fluorobenzyl)oxy)-3-methoxyphenyl)-7-methyl-3,7-dihydro-1H-purine-2,6-dione], the EC50 in the experiment on CD4+ T-cells was 0.1 to 0.5 µM; in the experiment with CD8+ T-cells, < 0.1 µM.
On to `COc1cc(-c2nc3c(c(=O)[nH]c(=O)n3CC(C)O)n2C)ccc1OCc1ccc(OC(F)F)cc1` (stereo not drawn) [Compound 85, 8-(4-((4-(difluoromethoxy)benzyl)oxy)-3-methoxyphenyl)-3-(2-hydroxypropyl)-7-methyl-3,7-dihydro-1H-purine-2,6-dione], for which the EC50 in the experiment on CD4+ T-cells and in the experiment with CD8+ T-cells was 0.1 to 0.5 µM each time.
On to `COc1cc(-c2nc3c(c(=O)[nH]c(=O)n3CC(C)O)n2C)ccc1OCc1ccc(C(F)F)cc1` (stereo not drawn) [Compound 86, 8-(4-((4-(difluoromethyl)benzyl)oxy)-3-methoxyphenyl)-3-(2-hydroxypropyl)-7-methyl-3,7-dihydro-1H-purine-2,6-dione], for which the EC50 in the experiment on CD4+ T-cells and with CD8+ T-cells was 0.1 to 0.5 µM throughout.
Regarding `COc1cc(-c2nc3c(c(=O)[nH]c(=O)n3CC(C)O)n2C)ccc1OCc1ccc(F)cc1` (stereo not drawn) [Compound 87, 8-(4-((4-fluorobenzyl)oxy)-3-methoxyphenyl)-3-(2-hydroxypropyl)-7-methyl-3,7-dihydro-1H-purine-2,6-dione], the EC50 with CD4+ T-cells lay within 0.5 to 1 µM; in the experiment on CD8+ T-cells, 0.1 to 0.5 µM.
On the same counts, the results for `COc1cc(-c2nc3c(c(=O)[nH]c(=O)n3CC(C)O)n2C)ccc1OCc1ccc(Cl)cc1` (stereo not drawn) [Compound 88, 8-(4-((4-chlorobenzyl)oxy)-3-methoxyphenyl)-3-(2-hydroxypropyl)-7-methyl-3,7-dihydro-1H-purine-2,6-dione] are 0.1 to 0.5 µM and 0.1 to 0.5 µM.
In the case of `COc1cc(-c2nc3c(c(=O)[nH]c(=O)n3CC(C)O)n2C)ccc1OCc1ccc(C(F)(F)F)cc1` (stereo not drawn) [Compound 89, 3-(2-hydroxypropyl)-8-(3-methoxy-4-((4-(trifluoromethyl)benzyl)oxy)phenyl)-7-methyl-3,7-dihydro-1H-purine-2,6-dione], the results for the EC50 in the experiment on CD4+ T-cells and in the experiment with CD8+ T-cells were 0.5 to 1 µM and 0.1 to 0.5 µM, respectively.
Take `COc1cc(-c2nc3c(c(=O)[nH]c(=O)n3CC(C)O)n2C)ccc1OCc1ccc(C#N)cc1` (stereo not drawn) [Compound 90, 4-((4-(3-(2-hydroxypropyl)-7-methyl-2,6-dioxo-2,3,6,7-tetrahydro-1H-purin-8-yl)-2-methoxyphenoxy)methyl)benzonitrile]: the EC50 in the experiment on CD4+ T-cells was in the range of 0.1 to 0.5 µM; in the experiment on CD8+ T-cells, 0.5 to 1 µM.
On to `CC(O)Cn1c(=O)[nH]c(=O)c2c1nc(-c1ccc(OCc3ccc(F)cc3)c(Cl)c1)n2C` (stereo not drawn) [Compound 91, 8-(3-chloro-4-((4-fluorobenzyl)oxy)phenyl)-3-(2-hydroxypropyl)-7-methyl-3,7-dihydro-1H-purine-2,6-dione], for which the EC50 in the experiment on CD4+ T-cells and in the experiment with CD8+ T-cells was 0.1 to 0.5 µM in each case.
As to `CC(O)Cn1c(=O)[nH]c(=O)c2c1nc(-c1ccc(OCc3ccc(F)c(F)c3)c(F)c1)n2C` (stereo not drawn) [Compound 92, 8-(4-((3,4-difluorobenzyl)oxy)-3-fluorophenyl)-3-(2-hydroxypropyl)-7-methyl-3,7-dihydro-1H-purine-2,6-dione], the EC50 with CD4+ T-cells and with CD8+ T-cells was 1 to 5 µM each time.
With `CC(O)Cn1c(=O)[nH]c(=O)c2c1nc(-c1ccc(OCc3ccc(Cl)c(F)c3)c(F)c1)n2C` (stereo not drawn) [Compound 93, 8-(4-((4-chloro-3-fluorobenzyl)oxy)-3-fluorophenyl)-3-(2-hydroxypropyl)-7-methyl-3,7-dihydro-1H-purine-2,6-dione], the results for the EC50 in the experiment on CD4+ T-cells and in the experiment on CD8+ T-cells were 1 to 5 µM and 0.5 to 1 µM, respectively.
Turning to `COc1cc(-c2nc3c(c(=O)[nH]c(=O)n3CC(O)CO)n2C)ccc1OCc1ccc(C)cc1` (stereo not drawn) [Compound 94, 3-(2,3-dihydroxypropyl)-8-(3-methoxy-4-((4-methylbenzyl)oxy)phenyl)-7-methyl-3,7-dihydro-1H-purine-2,6-dione], the EC50 in the experiment with CD4+ T-cells and with CD8+ T-cells was 1 to 5 µM each time.
For the compound `Cc1ccc(COc2ccc(-c3nc4c(c(=O)[nH]c(=O)n4CC(O)CO)n3C)cc2F)cc1` (stereo not drawn) [Compound 95, 3-(2,3-dihydroxypropyl)-8-(3-fluoro-4-((4-methylbenzyl)oxy)phenyl)-7-methyl-3,7-dihydro-1H-purine-2,6-dione], the EC50 in the experiment on CD4+ T-cells and in the experiment on CD8+ T-cells was 1 to 5 µM in each case.
`Cc1ccc(COc2ccc(-c3nc4c(c(=O)[nH]c(=O)n4CC(O)CF)n3C)cc2F)cc1` (stereo not drawn) [Compound 96, 3-(3-fluoro-2-hydroxypropyl)-8-(3-fluoro-4-((4-methylbenzyl)oxy)phenyl)-7-methyl-3,7-dihydro-1H-purine-2,6-dione]: the EC50 in the experiment with CD4+ T-cells and with CD8+ T-cells was 0.1 to 0.5 µM throughout.
Consider `Cc1ccc(COc2ccc(-c3nc4c(c(=O)[nH]c(=O)n4CC(C)CO)n3C)cc2F)cc1` (stereo not drawn) [Compound 97, 8-(3-fluoro-4-((4-methylbenzyl)oxy)phenyl)-3-(3-hydroxy-2-methylpropyl)-7-methyl-3,7-dihydro-1H-purine-2,6-dione], for which the EC50 with CD4+ T-cells and in the experiment with CD8+ T-cells was 0.1 to 0.5 µM throughout.
Take `CC(O)Cn1c(=O)[nH]c(=O)c2c1nc(-c1ccc(OCc3ccccc3)c(C(F)(F)F)c1)n2C` (stereo not drawn) [Compound 98, 8-(4-(benzyloxy)-3-(trifluoromethyl)phenyl)-3-(2-hydroxypropyl)-7-methyl-3,7-dihydro-1H-purine-2,6-dione]: the EC50 in the experiment on CD4+ T-cells and in the experiment on CD8+ T-cells was 0.1 to 0.5 µM in each case.
As to `COc1cc(-c2nc3c(c(=O)[nH]c(=O)n3CC(C)O)n2C)ccc1OCc1ccc(F)c(Cl)c1` (stereo not drawn) [Compound 99, 8-(4-((3-chloro-4-fluorobenzyl)oxy)-3-methoxyphenyl)-3-(2-hydroxypropyl)-7-methyl-3,7-dihydro-1H-purine-2,6-dione], the EC50 in the experiment on CD4+ T-cells and with CD8+ T-cells was 0.1 to 0.5 µM each time.
